From article PMC7311426, “An amphipathic peptide with antibiotic activity against multidrug-resistant Gram-negative bacteria” (Nature Communications, 2020)
Read-outs that look alike come from different tables or passages of the source. Residues, ends and D or L forms follow the SMILES beside them.

Assays:
[1] = Intravenous pharmacokinetics; conditions: for Nonlin fit of XY (Prism), mouse i.v. bolus / level at 1.23 h / level at 2 h / level at 3 h / level at 4 h / level at 8 h / level at 0.08 h / level at 0.5 h / level at 1 h / level at 24 h: Cross species PK; for Nonlin fit of XY (Prism), mouse i.v. bolus: fitted curve; for level at 1.23 h / level at 2 h / level at 3 h / level at 4 h / level at 8 h / level at 0.08 h / level at 0.5 h / level at 1 h / level at 24 h: concentration (Fig 6 source data)
Description: The studies were performed at Fidelta Ltd, Croatia (mice), under review by the institutional ethics committee (CARE-Zg), and Covance Laboratories UK and Muenster Germany (cynomolgus monkey and minipig) in accordance with the requirements of the Animals (Scientific Procedures) Act 1989 and a maintained local ethical review. All studies were contracted by Adenium Biotech ApS. Mice were housed in polysulfone cages with an acclimatization period of 7 days prior to experiments with air temperature maintained at 22 °C with 55% humidity and light–dark cycles of 12 h light. Cynomolgus monkeys of age range 4–7 years were selected, tested for health, acclimatized for 2 weeks, and housed in single-animal climate controlled stainless-steel cages with a minimum of 8 air changes per hour with air temperature at 19–25 °C and relative humidity 40–70%, and light–dark cycles of 12 h light. Minipigs of age range 4–6 months were selected, tested for health, acclimatized for 2 weeks, and housed in single-animal pens with 15–20 air changes per hour with air temperature at 22–26 °C with light–dark cycles of 12 h light.
Mouse i.v. injection: A formulation of AA139 in Ringer’s acetate pH 6.0 (1 mg mL^−1) was administered to male CD1 mice (Charles River, Italy) at 10 mg kg^−1 as a 400 μL slow injection into the lateral tail vein. Blood samples were collected from the jugular vein at eight timepoints (n = 3 mice): 0.08, 0.25, 0.5, 1, 2, 4, 8, and 24 h. AA139 was quantified in plasma using solid phase extraction (SPE) followed by liquid chromatography with tandem mass spectrometric detection (LC–MS/MS). Pharmacokinetic analysis was performed using Phoenix WinNonlin 6.2. (Pharsight Corporation) software using individual animal data, non-compartmental sparse analysis, and the actual dose as determined from formulation analysis by UPLC.
Mouse, monkey, and minipig i.v. 2-h infusion: AA139 formulated in Ringer’s acetate was administered intravenously to CD1 mice, cynomolgus monkeys (Macaca fascicularis) and Göttingen A/S minipigs (Ellegaard Göttingen, Denmark) by continuous infusion over 2 h (minipig under anesthesia). Individual dose volumes were based on individual body weight. Blood samples were collected at 0.5, 1, 2, 3, 4, 8, 10, and 12 h after the start of the infusion (n = 6 mice, male and female combined; n = 2 monkeys, one male and one female; n = 2 minipigs, one male and one female). Bioanalytical analysis was performed by SPE followed by LC–MS/MS. The method was validated for an AA139 concentration range of 43.4–21,700 ng mL^−1. Pharmacokinetic parameters were calculated by standard non-compartmental analysis (NCA) using Phoenix WinNonlin version 6.2. The studies were conducted in compliance with Good Laboratory Practice (GLP) regulations.

[2] = inhalation, mice; for Tmax: relative to end of inhalation
7-day iv MTD toxicity = conditions: minipig
[3] = both, CD1, mouse, in vivo, iv, 10 mg kg-1
[4] = both, CD1, mouse, in vivo, iv, mouse 2h i.v. infusion, replicate 1
[5] = both, CD1, mouse, in vivo, iv, mouse 2h i.v. infusion, replicate 2
[6] = both, CD1, mouse, in vivo, iv, mouse 2h i.v. infusion, replicate 3
[7] = male, CD1, mouse, in vivo, iv, 10 mg kg-1
[8] = male, CD1, mouse, in vivo, iv, 10 mg/kg, mouse i.v. bolus, replicate 1
[9] = male, CD1, mouse, in vivo, iv, 10 mg/kg, mouse i.v. bolus, replicate 2
[10] = male, CD1, mouse, in vivo, iv, 10 mg/kg, mouse i.v. bolus, replicate 3

Compound: CC(C)[C@@H]1NC(=O)[C@H](Cc2ccc(O)cc2)NC(=O)[C@H](Cc2c[nH]c3ccccc23)NC(=O)[C@@H](NC(=O)[C@H](Cc2ccccc2)NC(=O)CN)CSSC[C@@H](C(=O)N[C@@H](CC(N)=O)C(=O)O)NC(=O)[C@H](CCCNC(=N)N)NC(=O)[C@H](CCCNC(=N)N)NC(=O)[C@H](Cc2ccc(O)cc2)NC(=O)[C@@H]2CSSC[C@H](NC1=O)C(=O)N[C@@H](C)C(=O)N[C@@H](CCCNC(=N)N)C(=O)N[C@@H](CCCNC(=N)N)C(=O)N[C@@H](CC(N)=O)C(=O)NCC(=O)N[C@@H](C)C(=O)N[C@@H](CCCNC(=N)N)C(=O)N[C@@H](C(C)C)C(=O)N2 [AA139] (HELM PEPTIDE1{G.F.C.W.Y.V.C.A.R.R.N.G.A.R.V.C.Y.R.R.C.N}$PEPTIDE1,PEPTIDE1,3:R3-20:R3|PEPTIDE1,PEPTIDE1,7:R3-16:R3$$$V2.0)
- Nonlin fit of XY (Prism), mouse i.v. bolus ([1]; Time 19.1952 h): 546.556
- Nonlin fit of XY (Prism), mouse i.v. bolus ([1]; Time 20.1802 h): 523.855
- Nonlin fit of XY (Prism), mouse i.v. bolus ([1]; Time 23.952 h): 452.817
- AUC(0-inf) [1, 3]: 14000 ng·h/mL
- half-life [1, 3]: 174 min
- level at 1.23 h [1, 4]: 4540 ng/mL
- level at 1.23 h [1, 5]: 4960 ng/mL
- level at 1.23 h [1, 6]: 4090 ng/mL
- level at 2 h [1, 4]: 8160 ng/mL
- level at 2 h [1, 5]: 8010 ng/mL
- level at 2 h [1, 6]: 3870 ng/mL
- level at 3 h [1, 4]: 3530 ng/mL
- level at 3 h [1, 5]: 3750 ng/mL
- level at 3 h [1, 6]: 1420 ng/mL
- level at 4 h [1, 4]: 1350 ng/mL
- level at 4 h [1, 5]: 1140 ng/mL
- level at 4 h [1, 6]: 1490 ng/mL
- level at 8 h [1, 4]: 110 ng/mL
- level at 8 h [1, 5]: 216 ng/mL
- level at 8 h [1, 6]: 178 ng/mL
- Clearance relative to rate of liver blood flow ([1]; i.v., mice, cynomolgus monkeys and minipigs): ~ 20%
- half-life ([1]; i.v., mice, cynomolgus monkeys and minipigs, bi-exponential elimination): 120 to 240 min
- AUC(0-inf) [1, 7]: 24900 ng·h/mL
- Vd [1, 7]: 0.91 L/kg
- half-life [1, 7]: 192 min
- Cmax ([1]; male, CD1, mouse, in vivo, iv, 10 mg/kg): 16200 ng/mL
- level at 0.08 h [1, 8]: 14900 ng/mL
- level at 0.08 h [1, 9]: 10800 ng/mL
- level at 0.08 h [1, 10]: 13200 ng/mL
- level at 0.5 h [1, 8]: 8770 ng/mL
- level at 0.5 h [1, 9]: 8380 ng/mL
- level at 0.5 h [1, 10]: 6290 ng/mL
- level at 1 h [1, 8]: 7140 ng/mL
- level at 1 h [1, 9]: 5150 ng/mL
- level at 1 h [1, 10]: 3780 ng/mL
- level at 2 h [1, 8]: 5140 ng/mL
- level at 2 h [1, 9]: 2960 ng/mL
- level at 2 h [1, 10]: 3850 ng/mL
- level at 4 h [1, 8]: 1600 ng/mL
- level at 4 h [1, 9]: 1470 ng/mL
- level at 4 h [1, 10]: 1500 ng/mL
- level at 8 h [1, 8]: 402 ng/mL
- level at 8 h [1, 9]: 388 ng/mL
- level at 8 h [1, 10]: 472 ng/mL
- level at 24 h [1, 8]: 48 ng/mL
- level at 24 h [1, 9]: 32 ng/mL
- level at 24 h [1, 10]: 31 ng/mL
- Cross species PK, concentration (Fig 6 source data) ([1]; mouse 2h i.v. infusion, time 10 h, replicate 1): 88
- Cross species PK, concentration (Fig 6 source data) ([1]; mouse 2h i.v. infusion, time 10 h, replicate 2): 124
- Cross species PK, concentration (Fig 6 source data) ([1]; mouse 2h i.v. infusion, time 10 h, replicate 3): 134
- Cross species PK, concentration (Fig 6 source data) ([1]; mouse 2h i.v. infusion, time 12 h, replicate 1): 72.4
- Cross species PK, concentration (Fig 6 source data) ([1]; mouse 2h i.v. infusion, time 12 h, replicate 2): 93.8
- Cross species PK, concentration (Fig 6 source data) ([1]; mouse 2h i.v. infusion, time 12 h, replicate 3): 62.7
- AUC(0-t) ([2]; ELF, Day 1, 5 mg kg-1/day): 27,250 ng*h mL-1
- Cmax ([2]; ELF, Day 1, 5 mg kg-1/day): 14,750 ng mL-1
- Tmax ([2]; ELF, Day 1, 5 mg kg-1/day): 30 min
- Cmax ([2]; ELF, Day 1, 20 mg kg-1/day): 8,245 ng mL-1
- Tmax ([2]; ELF, Day 1, 20 mg kg-1/day): 78 min
- AUC(0-t) ([2]; ELF, Day 1, 40 mg kg-1/day): 63,300 ng*h mL-1
- Cmax ([2]; ELF, Day 1, 40 mg kg-1/day): 36,300 ng mL-1
- Tmax ([2]; ELF, Day 1, 40 mg kg-1/day): 0 min
- AUC(0-t) ([2]; ELF, Day 7, 5 mg kg-1/day): 58,650 ng*h mL-1
- Cmax ([2]; ELF, Day 7, 5 mg kg-1/day): 21,100 ng mL-1
- Tmax ([2]; ELF, Day 7, 5 mg kg-1/day): 18 min
- Cmax ([2]; ELF, Day 7, 20 mg kg-1/day): 42,350 ng mL-1
- Tmax ([2]; ELF, Day 7, 20 mg kg-1/day): 0 min
- AUC(0-t) ([2]; Lung (ng/g), Day 1, 5 mg kg-1/day): 8,585 ng*h mL-1
- AUC(0-t) ([2]; Lung (ng/g), Day 1, 20 mg kg-1/day): 14,411 ng*h mL-1
- AUC(0-t) ([2]; Lung (ng/g), Day 1, 40 mg kg-1/day): 7,002 ng*h mL-1
- AUC(0-t) ([2]; Lung (ng/g), Day 7, 5 mg kg-1/day): 11,802 ng*h mL-1
- AUC(0-t) ([2]; Lung (ng/g), Day 7, 20 mg kg-1/day): 66,791 ng*h mL-1
- Cmax ([2]; Lung, Day 1, 5 mg kg-1/day): 3,935 ng/g
- Tmax ([2]; Lung, Day 1, 5 mg kg-1/day): 0 min
- Cmax ([2]; Lung, Day 1, 20 mg kg-1/day): 7,691 ng/g
- Tmax ([2]; Lung, Day 1, 20 mg kg-1/day): 0 min
- Cmax ([2]; Lung, Day 1, 40 mg kg-1/day): 16,162 ng/g
- Tmax ([2]; Lung, Day 1, 40 mg kg-1/day): 0 min
- Cmax ([2]; Lung, Day 7, 5 mg kg-1/day): 4,228 ng/g
- Tmax ([2]; Lung, Day 7, 5 mg kg-1/day): 0 min
- Cmax ([2]; Lung, Day 7, 20 mg kg-1/day): 15,133 ng/g
- Tmax ([2]; Lung, Day 7, 20 mg kg-1/day): 30 min
- Tmax ([2]; Plasma, Day 7, 5 mg kg-1/day): 18 min
- Tmax ([2]; Plasma, Day 7, 20 mg kg-1/day): 0 min
- MTD at 168 h (7-day iv MTD toxicity; in vivo, iv): 10 mg/kg
- AUC(0-inf) (7-day iv MTD toxicity; in vivo, iv, 10 mg/kg): 36700 ng·h/mL
- Cmax (7-day iv MTD toxicity; in vivo, iv, 10 mg/kg): 8700 ng/mL
- Target organ toxicity, kidney (7-day iv MTD toxicity; 20, 25, or 30 mg kg^−1 per day by 2 h i.v. infusion for 7 days, dose-related severity): tubular nephropathy present
